Measured values reported in PubChem BioAssay (NCI).
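Protocol summary: plate cells (96-well), add compound at 5 concentrations, incubate 48 h, interpolate endpoints linearly. Abbreviation: GI50, concentration required for 50% inhibition of growth. The concentration for full growth arrest is given as TGI.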

Key:
Test in all cases: NCI-60 cell line screen, 48 h
786-0 renal = system: 786-0 renal
A498 renal = system: A498 renal
ACHN renal = system: ACHN renal
BT-549 breast = system: BT-549 breast
CAKI-1 renal = system: CAKI-1 renal
COLO 205 colon = system: COLO 205 colon
DU-145 prostate = system: DU-145 prostate
EKVX NSCLC = system: EKVX NSCLC
HCC-2998 colon = system: HCC-2998 colon
HCT-116 colon = system: HCT-116 colon
HCT-15 colon = system: HCT-15 colon
HL-60(TB) leukemia = system: HL-60(TB) leukemia
HOP-62 NSCLC = system: HOP-62 NSCLC
HOP-92 NSCLC = system: HOP-92 NSCLC
HS 578T breast = system: HS 578T breast
HT29 colon = system: HT29 colon
IGROV1 ovarian = system: IGROV1 ovarian
K-562 leukemia = system: K-562 leukemia
KM12 colon = system: KM12 colon
M14 melanoma = system: M14 melanoma
MALME-3M melanoma = system: MALME-3M melanoma
MCF7 breast = system: MCF7 breast
MDA-MB-231 breast = system: MDA-MB-231 breast
MDA-MB-435 = system: MDA-MB-435
NCI-H226 lung = system: NCI-H226 lung
NCI-H23 lung = system: NCI-H23 lung
NCI-H460 lung = system: NCI-H460 lung
NCI/ADR-RES ovarian = system: NCI/ADR-RES ovarian
OVCAR-3 ovarian = system: OVCAR-3 ovarian
OVCAR-4 ovarian = system: OVCAR-4 ovarian
OVCAR-5 ovarian = system: OVCAR-5 ovarian
PC-3 prostate = system: PC-3 prostate
RXF 393 renal = system: RXF 393 renal
SF-268 CNS = system: SF-268 CNS
SF-295 CNS = system: SF-295 CNS
SF-539 CNS = system: SF-539 CNS
SK-MEL-28 melanoma = system: SK-MEL-28 melanoma
SK-MEL-5 melanoma = system: SK-MEL-5 melanoma
SK-OV-3 ovarian = system: SK-OV-3 ovarian
SN12C renal = system: SN12C renal
SNB-19 CNS = system: SNB-19 CNS
SNB-75 CNS = system: SNB-75 CNS
SR leukemia = system: SR leukemia
SW-620 colon = system: SW-620 colon
T-47D breast = system: T-47D breast
TK-10 renal = system: TK-10 renal
U251 CNS = system: U251 CNS
UACC-257 melanoma = system: UACC-257 melanoma
UACC-62 melanoma = system: UACC-62 melanoma
UO-31 renal = system: UO-31 renal

`CCCCCCCC/C=C/CCCCCCCC1=NC(C)(C)CN1C(C)C` was tested. Which GI50 (786-0 renal) did it give?
Its GI50 is 1580 nM.

What about the TGI (786-0 renal) of the same molecule?
The TGI was 2930 nM.

And the GI50 (A498 renal)?
The GI50 was 2040 nM.

And the TGI (A498 renal)?
The TGI was 5210 nM.

What about the GI50 (ACHN renal) of the same molecule?
The GI50 was 1650 nM.

And the TGI (ACHN renal)?
The TGI was 3010 nM.

And the GI50 (BT-549 breast)?
The GI50 was 1580 nM.

What about the TGI (BT-549 breast) of the same molecule?
Its TGI is 3740 nM.

What about the GI50 (CAKI-1 renal) of the same molecule?
The GI50 was 1160 nM.

And the TGI (CAKI-1 renal)?
Its TGI is 2380 nM.

And the GI50 (COLO 205 colon)?
The GI50 was 516 nM.

And the TGI (COLO 205 colon)?
The TGI was 2090 nM.

What about the GI50 (DU-145 prostate) of the same molecule?
The GI50 was 1630 nM.

And the TGI (DU-145 prostate)?
Its TGI is 2990 nM.

What about the GI50 (EKVX NSCLC) of the same molecule?
Its GI50 is 1560 nM.

What about the TGI (EKVX NSCLC) of the same molecule?
The TGI was 3270 nM.

What about the GI50 (HCC-2998 colon) of the same molecule?
Its GI50 is 1420 nM.

What about the TGI (HCC-2998 colon) of the same molecule?
Its TGI is 2720 nM.

And the GI50 (HCT-116 colon)?
Its GI50 is 1400 nM.

And the TGI (HCT-116 colon)?
Its TGI is 2700 nM.

And the GI50 (HCT-15 colon)?
Its GI50 is 1510 nM.

And the TGI (HCT-15 colon)?
Its TGI is 2900 nM.

What about the GI50 (HL-60(TB) leukemia) of the same molecule?
Its GI50 is 1620 nM.

What about the TGI (HL-60(TB) leukemia) of the same molecule?
The TGI was 3250 nM.

What about the GI50 (HOP-62 NSCLC) of the same molecule?
The GI50 was 1580 nM.

And the TGI (HOP-62 NSCLC)?
Its TGI is 2920 nM.

What about the GI50 (HOP-92 NSCLC) of the same molecule?
Its GI50 is 819 nM.

What about the TGI (HOP-92 NSCLC) of the same molecule?
The TGI was 2600 nM.

What about the GI50 (HS 578T breast) of the same molecule?
The GI50 was 1550 nM.

And the TGI (HS 578T breast)?
The TGI was 3560 nM.

What about the GI50 (HT29 colon) of the same molecule?
The GI50 was 576 nM.

And the TGI (HT29 colon)?
The TGI was 1860 nM.

And the GI50 (IGROV1 ovarian)?
The GI50 was 868 nM.

What about the TGI (IGROV1 ovarian) of the same molecule?
The TGI was 2140 nM.

What about the GI50 (K-562 leukemia) of the same molecule?
The GI50 was 1110 nM.

And the TGI (K-562 leukemia)?
Its TGI is 2390 nM.

And the GI50 (KM12 colon)?
Its GI50 is 1620 nM.

What about the TGI (KM12 colon) of the same molecule?
Its TGI is 2970 nM.

And the GI50 (M14 melanoma)?
Its GI50 is 1530 nM.

And the TGI (M14 melanoma)?
Its TGI is 2860 nM.

What about the GI50 (MALME-3M melanoma) of the same molecule?
Its GI50 is 1630 nM.

What about the TGI (MALME-3M melanoma) of the same molecule?
The TGI was 3270 nM.

And the GI50 (MCF7 breast)?
The GI50 was 1520 nM.

What about the TGI (MCF7 breast) of the same molecule?
Its TGI is 2950 nM.

And the GI50 (MDA-MB-231 breast)?
Its GI50 is 1590 nM.

What about the TGI (MDA-MB-231 breast) of the same molecule?
The TGI was 2970 nM.

What about the GI50 (MDA-MB-435) of the same molecule?
Its GI50 is 1600 nM.

And the TGI (MDA-MB-435)?
The TGI was 3010 nM.

What about the GI50 (NCI-H226 lung) of the same molecule?
The GI50 was 1750 nM.

And the TGI (NCI-H226 lung)?
Its TGI is 4520 nM.

What about the GI50 (NCI-H23 lung) of the same molecule?
The GI50 was 1510 nM.

What about the TGI (NCI-H23 lung) of the same molecule?
Its TGI is 2830 nM.

What about the GI50 (NCI-H460 lung) of the same molecule?
The GI50 was 1700 nM.

What about the TGI (NCI-H460 lung) of the same molecule?
Its TGI is 3070 nM.

What about the GI50 (NCI/ADR-RES ovarian) of the same molecule?
Its GI50 is 1540 nM.

What about the TGI (NCI/ADR-RES ovarian) of the same molecule?
Its TGI is 3160 nM.

What about the GI50 (OVCAR-3 ovarian) of the same molecule?
Its GI50 is 1270 nM.

And the TGI (OVCAR-3 ovarian)?
The TGI was 2530 nM.

And the GI50 (OVCAR-4 ovarian)?
Its GI50 is 1630 nM.

What about the TGI (OVCAR-4 ovarian) of the same molecule?
The TGI was 2980 nM.

And the GI50 (OVCAR-5 ovarian)?
The GI50 was 1540 nM.

What about the TGI (OVCAR-5 ovarian) of the same molecule?
Its TGI is 2880 nM.

What about the GI50 (PC-3 prostate) of the same molecule?
Its GI50 is 1310 nM.

What about the TGI (PC-3 prostate) of the same molecule?
Its TGI is 2830 nM.

And the GI50 (RXF 393 renal)?
The GI50 was 1580 nM.

What about the TGI (RXF 393 renal) of the same molecule?
Its TGI is 3040 nM.

And the GI50 (SF-268 CNS)?
Its GI50 is 1700 nM.

And the TGI (SF-268 CNS)?
The TGI was 3070 nM.

What about the GI50 (SF-295 CNS) of the same molecule?
Its GI50 is 1640 nM.

And the TGI (SF-295 CNS)?
The TGI was 3070 nM.

What about the GI50 (SF-539 CNS) of the same molecule?
The GI50 was 1530 nM.

What about the TGI (SF-539 CNS) of the same molecule?
Its TGI is 2870 nM.

What about the GI50 (SK-MEL-28 melanoma) of the same molecule?
The GI50 was 1530 nM.

What about the TGI (SK-MEL-28 melanoma) of the same molecule?
The TGI was 2860 nM.

What about the GI50 (SK-MEL-5 melanoma) of the same molecule?
Its GI50 is 1610 nM.

And the TGI (SK-MEL-5 melanoma)?
Its TGI is 2960 nM.

What about the GI50 (SK-OV-3 ovarian) of the same molecule?
The GI50 was 1320 nM.

And the TGI (SK-OV-3 ovarian)?
Its TGI is 2590 nM.

What about the GI50 (SN12C renal) of the same molecule?
Its GI50 is 1460 nM.

And the TGI (SN12C renal)?
The TGI was 2780 nM.

What about the GI50 (SNB-19 CNS) of the same molecule?
The GI50 was 2170 nM.

What about the TGI (SNB-19 CNS) of the same molecule?
The TGI was 7490 nM.

What about the GI50 (SNB-75 CNS) of the same molecule?
Its GI50 is 1560 nM.

What about the TGI (SNB-75 CNS) of the same molecule?
Its TGI is 2900 nM.

What about the GI50 (SR leukemia) of the same molecule?
The GI50 was 1020 nM.

And the TGI (SR leukemia)?
Its TGI is 2420 nM.

What about the GI50 (SW-620 colon) of the same molecule?
The GI50 was 1590 nM.

What about the TGI (SW-620 colon) of the same molecule?
The TGI was 2940 nM.

What about the GI50 (T-47D breast) of the same molecule?
Its GI50 is 1620 nM.

And the TGI (T-47D breast)?
The TGI was 3270 nM.

And the GI50 (TK-10 renal)?
Its GI50 is 1450 nM.

And the TGI (TK-10 renal)?
Its TGI is 2790 nM.

What about the GI50 (U251 CNS) of the same molecule?
Its GI50 is 1620 nM.

What about the TGI (U251 CNS) of the same molecule?
Its TGI is 3000 nM.

What about the GI50 (UACC-257 melanoma) of the same molecule?
Its GI50 is 1860 nM.

And the TGI (UACC-257 melanoma)?
Its TGI is 3400 nM.

And the GI50 (UACC-62 melanoma)?
Its GI50 is 1610 nM.

And the TGI (UACC-62 melanoma)?
Its TGI is 3020 nM.

And the GI50 (UO-31 renal)?
Its GI50 is 1430 nM.

What about the TGI (UO-31 renal) of the same molecule?
The TGI was 2810 nM.
